Source: ChEMBL document CHEMBL1201862, “PubChem BioAssay data set” (2004)
Activity calls are given as the source filed them.

Legend:
SUMO-activating enzyme [1] = target: T1, SUMO-activating enzyme (Homo sapiens, UniProt Q9UBT2); test: blockers of UBC9-mediated SUMO conjugation – biochemical, AlphaScreen, SUMOylation inhibitor project, confirmation (AID 2018); type: functional
SUMO-activating enzyme [2] = target: T1, SUMO-activating enzyme; test: blockers of SAE1/SAE2–UBC9 SUMO transfer – biochemical, HTRF, uHTS, primary screen (AID 2006); type: protein-complex assay
[3] = target: T2, Calpain-2 catalytic subunit (Sus scrofa, UniProt P43367); test: m-calpain protease blockers, concentration series – biochemical, fluorogenic peptide substrate, dose response (AID 1420); type: functional
T2 sequence (P43367 whole entry): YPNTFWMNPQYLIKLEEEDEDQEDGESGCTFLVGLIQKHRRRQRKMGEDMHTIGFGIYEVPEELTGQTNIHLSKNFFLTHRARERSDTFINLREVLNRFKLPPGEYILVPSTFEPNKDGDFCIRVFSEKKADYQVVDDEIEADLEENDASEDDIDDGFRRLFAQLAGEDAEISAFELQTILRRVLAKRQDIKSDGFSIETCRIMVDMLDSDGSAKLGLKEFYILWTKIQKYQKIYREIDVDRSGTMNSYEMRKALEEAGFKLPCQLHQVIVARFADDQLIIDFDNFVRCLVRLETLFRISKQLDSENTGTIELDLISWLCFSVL

[4] = target: Dual specificity tyrosine-phosphorylation-regulated kinase 1A (Rattus norvegicus, UniProt Q63470); type: biochemical, Homo sapiens
[5] = target: Intestinal-type alkaline phosphatase (Homo sapiens, UniProt P09923); test: Dose Response confirmation of uHTS hits from a small molecule inhibitors of human intestinal alkaline phosphatase via a luminescent assay. [Related pubchem assays (depositor defined):AID2544, AID2574]; type: functional
[6] = target: T3, Heat shock 70 kDa protein 1A (Homo sapiens, UniProt P0DMV8); test: small-molecule inhibition of Hsp70 – biochemical, TR-FRET (AID 786)
T3 sequence (P0DMV8 whole entry): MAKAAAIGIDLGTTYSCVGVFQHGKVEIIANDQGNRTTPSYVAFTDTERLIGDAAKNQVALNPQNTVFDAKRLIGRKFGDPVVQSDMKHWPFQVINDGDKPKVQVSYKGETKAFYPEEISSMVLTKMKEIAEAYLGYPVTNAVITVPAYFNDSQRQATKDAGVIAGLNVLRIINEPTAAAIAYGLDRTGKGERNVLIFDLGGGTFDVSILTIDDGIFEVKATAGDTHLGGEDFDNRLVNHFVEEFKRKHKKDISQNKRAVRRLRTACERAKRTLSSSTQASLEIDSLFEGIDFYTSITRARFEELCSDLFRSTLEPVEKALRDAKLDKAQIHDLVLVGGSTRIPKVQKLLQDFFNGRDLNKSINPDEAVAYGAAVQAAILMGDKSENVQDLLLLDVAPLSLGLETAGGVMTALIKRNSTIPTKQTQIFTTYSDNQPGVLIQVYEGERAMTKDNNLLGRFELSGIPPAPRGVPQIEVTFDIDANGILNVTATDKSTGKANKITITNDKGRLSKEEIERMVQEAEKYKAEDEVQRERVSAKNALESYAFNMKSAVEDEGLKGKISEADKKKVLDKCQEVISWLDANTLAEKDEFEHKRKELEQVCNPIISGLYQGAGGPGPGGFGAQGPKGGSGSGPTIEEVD

[7] = target: T3, Heat shock 70 kDa protein 1A; test: small molecules displacing fluorescent ligand from Hsp70 – biochemical, fluorescence polarization, primary screen (AID 583)
[8] = NIH-3T3 fibroblast cytotoxicity, dose response, cytotoxicity control, cell-based, fluorescence, Alamar Blue, secondary assay (AID 2327); type: functional;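 also: NIH-3T3 mouse fibroblasts cultured with fluconazole at 8 µg/mL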
[9] = target: Peroxisome proliferator-activated receptor gamma/Nuclear receptor coactivator 1 (Homo sapiens, UniProt P37231); test: (§1) TR-FRET dose response biochemical High Throughput Screening assay for agonists of the steroid receptor coactivator 1 (SRC-1) recruitment by the peroxisome proliferator-activated receptor gamma (PPAR gamma): non-selective agonists. [Related pubchem assays (depositor defined):AID1300, AID1808, AID504735, AID631]; type: protein assay
Peroxisome proliferator-activated receptor gamma/Nuclear receptor coactivator 1, sequence (P37231 whole entry): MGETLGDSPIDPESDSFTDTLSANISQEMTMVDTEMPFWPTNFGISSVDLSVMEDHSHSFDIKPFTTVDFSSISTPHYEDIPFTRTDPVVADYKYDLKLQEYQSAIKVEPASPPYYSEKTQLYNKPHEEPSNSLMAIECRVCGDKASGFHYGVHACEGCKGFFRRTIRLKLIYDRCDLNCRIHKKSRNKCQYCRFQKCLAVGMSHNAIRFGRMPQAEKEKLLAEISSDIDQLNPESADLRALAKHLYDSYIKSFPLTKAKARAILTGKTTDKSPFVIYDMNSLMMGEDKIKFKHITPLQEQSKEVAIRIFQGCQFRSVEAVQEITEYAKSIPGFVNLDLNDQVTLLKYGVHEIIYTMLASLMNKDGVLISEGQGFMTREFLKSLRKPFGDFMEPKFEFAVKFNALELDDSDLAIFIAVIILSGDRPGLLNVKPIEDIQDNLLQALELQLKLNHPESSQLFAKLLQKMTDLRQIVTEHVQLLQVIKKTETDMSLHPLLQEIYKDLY
Peroxisome proliferator-activated receptor gamma/Nuclear receptor coactivator 1, sequence (Q15788 whole entry, further chain): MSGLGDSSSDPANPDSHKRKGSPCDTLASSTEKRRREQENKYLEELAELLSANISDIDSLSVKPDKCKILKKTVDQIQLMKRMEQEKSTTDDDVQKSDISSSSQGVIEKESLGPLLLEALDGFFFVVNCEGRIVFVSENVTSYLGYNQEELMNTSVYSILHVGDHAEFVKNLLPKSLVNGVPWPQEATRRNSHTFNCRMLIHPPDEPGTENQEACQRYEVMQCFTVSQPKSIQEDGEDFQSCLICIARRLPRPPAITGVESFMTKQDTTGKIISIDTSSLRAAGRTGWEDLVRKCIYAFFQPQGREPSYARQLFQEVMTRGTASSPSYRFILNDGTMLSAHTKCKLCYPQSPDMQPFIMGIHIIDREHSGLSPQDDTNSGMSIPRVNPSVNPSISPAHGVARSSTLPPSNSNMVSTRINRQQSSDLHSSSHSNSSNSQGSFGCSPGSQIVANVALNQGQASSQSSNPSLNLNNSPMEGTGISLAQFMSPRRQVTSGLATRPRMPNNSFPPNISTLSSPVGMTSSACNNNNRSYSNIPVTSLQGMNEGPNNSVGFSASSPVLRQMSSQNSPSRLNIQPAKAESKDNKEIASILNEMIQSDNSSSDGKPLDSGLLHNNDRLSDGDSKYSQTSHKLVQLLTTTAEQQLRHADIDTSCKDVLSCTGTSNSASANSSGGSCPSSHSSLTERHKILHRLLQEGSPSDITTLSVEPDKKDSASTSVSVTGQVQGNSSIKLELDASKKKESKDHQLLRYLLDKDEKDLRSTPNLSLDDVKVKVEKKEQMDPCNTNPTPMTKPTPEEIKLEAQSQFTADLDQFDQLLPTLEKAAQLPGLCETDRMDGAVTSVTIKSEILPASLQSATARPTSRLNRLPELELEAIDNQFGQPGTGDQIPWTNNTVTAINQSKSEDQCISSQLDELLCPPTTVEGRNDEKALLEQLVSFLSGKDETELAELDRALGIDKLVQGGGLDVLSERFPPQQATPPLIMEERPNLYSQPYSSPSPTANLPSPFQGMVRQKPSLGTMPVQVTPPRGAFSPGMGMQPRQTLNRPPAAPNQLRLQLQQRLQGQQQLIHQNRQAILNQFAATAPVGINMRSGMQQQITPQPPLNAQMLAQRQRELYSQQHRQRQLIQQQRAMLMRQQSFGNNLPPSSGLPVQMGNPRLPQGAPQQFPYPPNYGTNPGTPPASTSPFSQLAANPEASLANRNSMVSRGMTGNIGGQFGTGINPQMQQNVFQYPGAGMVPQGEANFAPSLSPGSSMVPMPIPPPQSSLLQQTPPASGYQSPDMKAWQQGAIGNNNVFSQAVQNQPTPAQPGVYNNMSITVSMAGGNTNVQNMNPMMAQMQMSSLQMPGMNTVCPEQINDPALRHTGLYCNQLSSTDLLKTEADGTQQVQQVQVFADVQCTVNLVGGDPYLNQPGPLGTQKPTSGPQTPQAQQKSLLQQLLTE

[10] = target: Peroxisome proliferator-activated receptor gamma/Nuclear receptor coactivator 3 (Homo sapiens, UniProt P37231); test: as §1, with “3 (SRC-3)” for “1 (SRC-1)”, “assays: 1301 (Confirmation screen.), 1048 (Primary screen.)]” for “assays (depositor defined):AID1300, AID1808, AID504735, AID631]”; type: functional
[11] = fluconazole-exposed Candida albicans growth modulators – fluorescence, retest, confirmation (AID 2467); type: functional, cell-based
NS3 = NS3 (Hepatitis C virus, UniProt A3EZJ3); test: PubChem AID 2173; set-up: species or system Hepacivirus hominis
NS3, sequence (A3EZJ3 whole entry): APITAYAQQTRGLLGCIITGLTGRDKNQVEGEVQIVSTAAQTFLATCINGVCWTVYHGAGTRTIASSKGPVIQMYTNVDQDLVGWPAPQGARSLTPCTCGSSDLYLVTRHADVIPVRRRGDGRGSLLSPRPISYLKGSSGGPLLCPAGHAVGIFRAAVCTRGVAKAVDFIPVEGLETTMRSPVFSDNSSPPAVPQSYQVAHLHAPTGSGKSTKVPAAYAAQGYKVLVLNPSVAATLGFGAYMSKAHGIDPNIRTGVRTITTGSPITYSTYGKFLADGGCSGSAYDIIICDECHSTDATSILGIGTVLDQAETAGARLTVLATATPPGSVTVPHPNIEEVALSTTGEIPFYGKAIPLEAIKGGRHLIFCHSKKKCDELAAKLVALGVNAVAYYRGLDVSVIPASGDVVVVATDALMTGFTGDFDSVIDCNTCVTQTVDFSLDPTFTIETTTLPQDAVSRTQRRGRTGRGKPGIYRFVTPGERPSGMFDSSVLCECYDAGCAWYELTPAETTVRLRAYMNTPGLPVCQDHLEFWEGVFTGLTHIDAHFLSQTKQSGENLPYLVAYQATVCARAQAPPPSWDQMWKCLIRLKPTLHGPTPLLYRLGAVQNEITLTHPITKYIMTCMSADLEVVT

[12] = target: T4, Serine/threonine-protein phosphatase (Candida dubliniensis (strain CD36 / CBS 7987 / NCPF 3949 / NRRLY-17841) (Yeast), UniProt B9W6M3); test: blockers of CaCl2-induced CDRE-lacZ signaling – S. cerevisiae, luminescence, secondary, dose response (AID 2388); type: functional, cell-based;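 also: yeast reporter cells carrying a calcineurin-responsive lacZ construct stimulated with calcium chloride; luminescent beta-galactosidase reporter signal in whole cells rather than isolated phosphatase activity; potency for inhibition where a drop in reporter signal means calcineurin blockade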
T4 sequence (B9W6M3 whole entry): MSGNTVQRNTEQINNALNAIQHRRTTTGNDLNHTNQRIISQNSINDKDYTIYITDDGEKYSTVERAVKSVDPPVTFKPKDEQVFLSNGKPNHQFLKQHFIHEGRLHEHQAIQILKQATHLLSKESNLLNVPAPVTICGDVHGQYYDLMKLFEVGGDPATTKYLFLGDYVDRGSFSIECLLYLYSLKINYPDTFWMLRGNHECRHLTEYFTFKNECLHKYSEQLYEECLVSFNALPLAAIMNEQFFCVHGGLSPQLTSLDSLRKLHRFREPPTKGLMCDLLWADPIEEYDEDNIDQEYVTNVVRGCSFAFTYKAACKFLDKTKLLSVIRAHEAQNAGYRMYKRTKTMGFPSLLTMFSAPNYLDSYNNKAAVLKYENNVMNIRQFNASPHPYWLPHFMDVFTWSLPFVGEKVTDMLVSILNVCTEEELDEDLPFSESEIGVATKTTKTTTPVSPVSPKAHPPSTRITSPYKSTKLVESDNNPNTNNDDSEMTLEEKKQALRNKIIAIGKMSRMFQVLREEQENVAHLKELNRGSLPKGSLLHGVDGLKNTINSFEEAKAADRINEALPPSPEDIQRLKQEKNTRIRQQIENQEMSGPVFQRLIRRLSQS

[13] = target: Peroxisome proliferator-activated receptor gamma/Nuclear receptor coactivator 2 (Homo sapiens, UniProt P37231); test: TR-FRET dose response biochemical High Throughput Screening assay for agonists of the steroid receptor coactivator 2 (SRC-2) recruitment by the peroxisome proliferator-activated receptor gamma (PPAR gamma): non-selective agonists. [Related pubchem assays: 1297, 1032 ]; type: functional
[14] = target: ATP-dependent molecular chaperone HSP82 (Candida albicans (strain WO-1) (Yeast), UniProt C4YTQ8); test: steroid-induced GRE reporter decrease in yeast – S. cerevisiae, luminescence, Hsp90 inhibitor project, dose response (AID 2400); type: functional, cell-based;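 also: beta-galactosidase luminescence from glucocorticoid response element reporter as proxy for Hsp90 function; inhibitor potency where signal loss means Hsp90 inhibition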
[15] = target: T5, Long-chain-fatty-acid--AMP ligase FadD28 (Mycobacterium tuberculosis, UniProt P9WQ59); test: Fluorescence polarization aasay to screen for inhibitors that compete for the binding of FadD28 to a bisubstrate Measured in Biochemical System Using Plate Reader - 2147-01_Inhibitor_Dose_CherryPick_Activity.; type: functional, Mycobacterium tuberculosis H37Rv
T5 sequence (P9WQ59 whole entry): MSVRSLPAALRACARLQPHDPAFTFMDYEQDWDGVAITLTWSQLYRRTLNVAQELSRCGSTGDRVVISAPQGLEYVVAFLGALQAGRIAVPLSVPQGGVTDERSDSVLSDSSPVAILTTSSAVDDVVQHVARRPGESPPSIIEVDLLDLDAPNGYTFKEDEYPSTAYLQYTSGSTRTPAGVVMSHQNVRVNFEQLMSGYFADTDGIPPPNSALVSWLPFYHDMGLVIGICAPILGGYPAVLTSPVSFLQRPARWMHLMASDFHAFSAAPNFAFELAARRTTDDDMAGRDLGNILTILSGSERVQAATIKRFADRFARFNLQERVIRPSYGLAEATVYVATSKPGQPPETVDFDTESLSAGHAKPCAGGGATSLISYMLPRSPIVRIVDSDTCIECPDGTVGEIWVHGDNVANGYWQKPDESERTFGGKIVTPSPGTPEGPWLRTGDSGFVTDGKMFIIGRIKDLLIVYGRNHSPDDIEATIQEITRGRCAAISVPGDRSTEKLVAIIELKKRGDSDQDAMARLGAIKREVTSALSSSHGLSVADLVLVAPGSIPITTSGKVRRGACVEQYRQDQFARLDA

fMet-Leu-Phe receptor = target: T6, fMet-Leu-Phe receptor (Homo sapiens, UniProt P21462); test: formyl peptide receptor binders – dose response (AID 519); type: functional
T6 sequence (P21462 whole entry): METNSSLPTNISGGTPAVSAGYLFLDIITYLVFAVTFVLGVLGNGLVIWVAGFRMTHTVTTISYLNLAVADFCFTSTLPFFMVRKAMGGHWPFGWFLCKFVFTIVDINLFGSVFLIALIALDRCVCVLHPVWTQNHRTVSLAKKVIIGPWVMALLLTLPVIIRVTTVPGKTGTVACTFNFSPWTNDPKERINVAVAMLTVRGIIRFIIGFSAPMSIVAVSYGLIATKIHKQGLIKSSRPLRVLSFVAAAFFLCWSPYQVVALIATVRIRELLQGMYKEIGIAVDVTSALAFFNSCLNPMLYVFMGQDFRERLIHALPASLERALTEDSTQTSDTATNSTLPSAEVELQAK

Large T antigen = Large T antigen (Simian virus 40, UniProt P03070); type: functional, Betapolyomavirus macacae;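 also: Confirmatory-stage PubChem screen for compounds that inhibit SV40 T antigen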
Large T antigen, sequence (P03070 whole entry): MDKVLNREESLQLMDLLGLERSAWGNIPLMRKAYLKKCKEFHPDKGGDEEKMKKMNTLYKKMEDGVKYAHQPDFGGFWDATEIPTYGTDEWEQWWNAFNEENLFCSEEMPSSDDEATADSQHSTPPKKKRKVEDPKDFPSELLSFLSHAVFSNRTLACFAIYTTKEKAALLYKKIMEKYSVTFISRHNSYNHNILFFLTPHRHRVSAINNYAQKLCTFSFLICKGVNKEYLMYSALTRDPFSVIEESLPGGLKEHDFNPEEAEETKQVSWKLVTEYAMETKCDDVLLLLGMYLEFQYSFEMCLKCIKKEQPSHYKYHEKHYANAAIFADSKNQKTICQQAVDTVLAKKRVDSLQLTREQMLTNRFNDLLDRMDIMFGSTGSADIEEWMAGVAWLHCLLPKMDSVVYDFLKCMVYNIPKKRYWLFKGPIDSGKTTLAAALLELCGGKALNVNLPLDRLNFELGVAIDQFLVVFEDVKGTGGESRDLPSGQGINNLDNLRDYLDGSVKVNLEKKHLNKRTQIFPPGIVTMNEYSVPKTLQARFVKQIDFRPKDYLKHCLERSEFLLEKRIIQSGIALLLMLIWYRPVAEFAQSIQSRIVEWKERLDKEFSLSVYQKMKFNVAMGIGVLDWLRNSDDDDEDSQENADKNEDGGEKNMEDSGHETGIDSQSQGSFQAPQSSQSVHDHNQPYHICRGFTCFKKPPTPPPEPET

[16] = target: Neurotensin receptor type 1 (Homo sapiens, UniProt P30989); type: functional;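 also: Image-based confirmatory dose-response assay measuring agonist activity at NTR1; NTR1-expressing U2OS osteosarcoma cells imaged for beta-arrestin GFP spot formation; agonist potency where compounds increase beta-arrestin recruitment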
Albumin = Albumin (Bos taurus, UniProt P02769); test: Counterscreen for inhibitors of T-cell receptor (TCR)-CD3 interaction: Fluorescence-based biochemical high throughput dose response assay to identify inhibitors of T-cell receptor (TCR)-CD3 interaction using a TAMRA-labeled BSA probe.; type: functional
[17] = viability loss in THP-1 monocytes – THP-1 cells, cytotoxicity control for Vif-APOBEC3G degradation inhibitor project, dose response (AID 1117359); type: functional; details: THP-1
[18] = target: Induced myeloid leukemia cell differentiation protein Mcl-1 (Homo sapiens, UniProt Q07820); type: functional
[19] = target: 26S proteasome non-ATPase regulatory subunit 14 (Homo sapiens, UniProt O00487); test: inhibition of proteasome subunit RPN11 – biochemical, fluorescence polarization, uHTS hits, confirmation (AID 602368); type: functional
[20] = target: 72 kDa type IV collagenase (Homo sapiens, UniProt P08253); test: Dose Response validation of uHTS RPN11 inhibitor hits using a MMP-2 Fluorescence assay.; type: functional
Prothrombin = Prothrombin (Bos taurus, UniProt P00735); test: thrombin protease inhibitors – biochemical, fluorescence polarization, uHTS hits, dose response (AID 602369); type: functional
[21] = HEK-293T cell viability reduction – luminescence, B-cell screen hits, cytotoxicity control for BCR NF-kB inhibitor project, dose response (AID 489021); type: functional, cell-based;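 also: HEK-293T cells carrying an NF-kB luciferase reporter; cells exposed to compound for about 14 hours before viability readout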

T1 sequence (Q9UBE0 whole entry): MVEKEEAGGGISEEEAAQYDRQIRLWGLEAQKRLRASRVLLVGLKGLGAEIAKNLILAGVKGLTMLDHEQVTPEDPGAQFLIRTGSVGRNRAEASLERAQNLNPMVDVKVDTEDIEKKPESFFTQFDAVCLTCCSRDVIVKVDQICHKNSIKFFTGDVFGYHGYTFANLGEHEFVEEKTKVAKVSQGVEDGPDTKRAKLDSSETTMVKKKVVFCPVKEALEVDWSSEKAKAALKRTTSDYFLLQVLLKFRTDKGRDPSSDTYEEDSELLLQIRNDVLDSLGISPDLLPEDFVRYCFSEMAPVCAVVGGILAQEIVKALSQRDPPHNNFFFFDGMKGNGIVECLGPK
T1 sequence (Q9UBT2 whole entry): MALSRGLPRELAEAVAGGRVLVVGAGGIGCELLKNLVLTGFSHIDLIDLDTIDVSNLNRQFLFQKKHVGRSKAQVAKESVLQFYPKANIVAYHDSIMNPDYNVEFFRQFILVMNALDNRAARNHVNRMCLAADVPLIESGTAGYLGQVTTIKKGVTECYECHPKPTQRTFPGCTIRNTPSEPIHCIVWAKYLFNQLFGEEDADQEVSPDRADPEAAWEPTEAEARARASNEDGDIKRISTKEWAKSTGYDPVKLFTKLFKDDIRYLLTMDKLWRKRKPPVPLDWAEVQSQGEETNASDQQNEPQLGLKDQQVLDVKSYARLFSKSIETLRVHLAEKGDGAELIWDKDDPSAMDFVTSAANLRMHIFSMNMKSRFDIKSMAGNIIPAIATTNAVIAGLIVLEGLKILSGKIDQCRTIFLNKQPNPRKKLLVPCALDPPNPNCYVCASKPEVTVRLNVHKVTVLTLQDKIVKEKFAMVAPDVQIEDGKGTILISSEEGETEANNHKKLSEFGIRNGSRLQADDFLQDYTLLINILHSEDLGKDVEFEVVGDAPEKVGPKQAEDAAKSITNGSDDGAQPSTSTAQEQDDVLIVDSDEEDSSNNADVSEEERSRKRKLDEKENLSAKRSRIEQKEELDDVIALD

Structure (SMILES): O=C(Nc1ccc(F)cc1)C(=O)c1c(O)[nH]c2ccc([N+](=O)[O-])cc12
- IC50 (SUMO-activating enzyme [1]): 9.48 µM (active)
- IC50 (SUMO-activating enzyme [2]): 24 µM (active)
- IC50 [3]: > 50 µM (not active)
- AC50 [4]: 10.4 µM (active)

Structure (SMILES): NC(=O)c1ccc(NC(=O)C2CCCC2)cc1
- IC50 [5]: > 100 µM (inactive)

Structure (SMILES): CCOc1ccccc1N1Cc2cc(C)c(C)cc2C1
- IC50 [6]: > 100 µM (not active)
- IC50 [7]: > 100 µM (not active)

Structure (SMILES): COc1ccc(OC)c(C2C(C(=O)c3cc4ccccc4o3)=C(O)C(=O)N2c2cc(C)on2)c1 (stereo not given)
- EC50 [8]: > 150 µM (inactive)
- EC50 [9]: > 79.4 µM (inactive)
- EC50 [10]: > 79.4 µM (not active)
- EC50 [11]: 0.046 µM (active)
- IC50 (NS3): 5.29 µM (active)
- EC50 [12]: > 180 µM (inactive)
- EC50 [13]: 36 µM (not active)
- EC50 [14]: 21.6 µM (active)
- AC50 [15]: > 100 µM (inactive)
- Ki (fMet-Leu-Phe receptor): 36.6 µM (inactive)

Structure (SMILES): C=CCOC(=O)C(C#N)c1nc2ccccc2nc1N1CCCC1 (stereo not given)
- IC50 [6]: > 100 µM (not active)
- IC50 [7]: > 100 µM (not active)

Structure (SMILES): O=c1cc(-c2ccc(O)cc2)oc2cc(O)c(C3OC(CO)C(O)C(O)C3O)c(O)c12 (stereo not given)
- IC50 (Large T antigen): 21.4 µM (active)
- EC50 [16]: 2.71 µM (active)
- IC50 (Albumin): > 94.1 µM (inactive)
- CC50 [17]: > 40 µM (active)

Structure (SMILES): Cc1ccc(CSc2nnc(SCC(=O)N/N=C/c3c[nH]c4ccccc34)s2)cc1
- IC50 (SUMO-activating enzyme [1]): 1.38 µM (active)
- IC50 (SUMO-activating enzyme [2]): 17.6 µM (active)
- IC50 [18]: 3.91 µM (active)
- IC50 [19]: 6.88 µM (active)
- IC50 [20]: > 100 µM (inactive)
- IC50 (Prothrombin): 55.4 µM (active)

Structure (SMILES): COc1cc(C[C@@H]2C(=O)OC[C@H]2Cc2ccc(OC)c(OC)c2)ccc1O
- IC50 [21]: > 80 µM (inactive)
